From patent US7241760B2, “Heteroaryl-substituted imidazole derivatives” (Hoffmann-La Roche Inc., priority 2003, dated 2007) come the findings set out here.

The assay concerns the target T1, human mGlu 5a receptor (Homo sapiens, UniProt P41594).
T1 construct: expressed in transfected cells; host or cells: EBNA cells (transient transfection); cell membrane homogenates
Put plainly: [3H]MPEP competition binding on membranes of EBNA cells transfected with human mGlu 5a receptor. Conditions: competition with [3H]MPEP (2 nM), 1 h at 4° C., membranes of transiently transfected EBNA cells; Ki=IC50/[1+L/Kd]. As for the experimental part: For binding experiments, cDNA encoding human mGlu 5a receptor was transiently transfected into EBNA cells using a procedure described by Schlaeger and Christensen [Cytotechnology 15:1–13 (1998)]. Cell membrane homogenates were stored at −80° C. until the day of assay where upon they were thawed and resuspended and polytronised in 15 mM Tris-HCl, 120 mM NaCl, 100 mM KCl, 25 mM CaCl2, 25 mM MgCl2 binding buffer at pH 7.4 to a final assay concentration of 20 μg protein/well.
Saturation isotherms were determined by addition of twelve [^3H]MPEP concentrations (0.04–100 nM) to these membranes (in a total volume of 200 μl) for 1 h at 4° C. Competition experiments were performed with a fixed concentration of [^3H]MPEP (2 nM) and IC50 values of test compounds evaluated using 11 concentrations (0.3–10,000 nM). Incubations were performed for 1 h at 4° C.
At the end of the incubation, membranes were filtered onto unifilter (96-well white microplate with bonded GF/C filter preincubated 1 h in 0.1% PEI in wash buffer, Packard BioScience, Meriden, Conn.) with a Filtermate 96 harvester (Packard BioScience) and washed 3 times with cold 50 mM Tris-HCl, pH 7.4 buffer. Nonspecific binding was measured in the presence of 10 μM MPEP. The radioactivity on the filter was counted (3 min) on a Packard Top-count microplate scintillation counter with quenching correction after addition of 45 μl of microscint 40 (Can berra Packard S. A., Zürich, Switzerland) and shaking for 20 min. For functional assays, [Ca^2+]i measurements were performed as described previously by Porter et al. [Br. J. Pharmacol. 128:13–20 (1999)] on recombinant human mGlu 5a receptors in HEK-293 cells. The cells were dye loaded using Fluo 4-AM (obtainable by FLUKA, 0.2 μM final concentration). [Ca^2+]i measurements were performed using a fluorometric imaging plate reader (FLIPR, Molecular Devices Corporation, La Jolla, Calif., USA). Antagonist evaluation was performed following a 5 min preincubation with the test compounds followed by the addition of a submaximal addition of agonist.
The inhibition (antagonists) curves were fitted with a four parameter logistic equation giving IC50, and Hill coefficient using an iterative non linear curve fitting software (Xcel fit).
For binding experiments the Ki values of the compounds tested are given. The Ki value is defined by the following formula: Ki=IC50/[1+L/Kd] in which the IC50 values are those concentrations of the compounds tested which cause 50% inhibition of the competing radioligand ([^3H]MPEP). L is the concentration of radioligand used in the binding experiment and the Kd value of the radioligand is empirically determined for each batch of membranes prepared.

T1 sequence (P41594 21-1180 isoform P41594-2 limits assumed): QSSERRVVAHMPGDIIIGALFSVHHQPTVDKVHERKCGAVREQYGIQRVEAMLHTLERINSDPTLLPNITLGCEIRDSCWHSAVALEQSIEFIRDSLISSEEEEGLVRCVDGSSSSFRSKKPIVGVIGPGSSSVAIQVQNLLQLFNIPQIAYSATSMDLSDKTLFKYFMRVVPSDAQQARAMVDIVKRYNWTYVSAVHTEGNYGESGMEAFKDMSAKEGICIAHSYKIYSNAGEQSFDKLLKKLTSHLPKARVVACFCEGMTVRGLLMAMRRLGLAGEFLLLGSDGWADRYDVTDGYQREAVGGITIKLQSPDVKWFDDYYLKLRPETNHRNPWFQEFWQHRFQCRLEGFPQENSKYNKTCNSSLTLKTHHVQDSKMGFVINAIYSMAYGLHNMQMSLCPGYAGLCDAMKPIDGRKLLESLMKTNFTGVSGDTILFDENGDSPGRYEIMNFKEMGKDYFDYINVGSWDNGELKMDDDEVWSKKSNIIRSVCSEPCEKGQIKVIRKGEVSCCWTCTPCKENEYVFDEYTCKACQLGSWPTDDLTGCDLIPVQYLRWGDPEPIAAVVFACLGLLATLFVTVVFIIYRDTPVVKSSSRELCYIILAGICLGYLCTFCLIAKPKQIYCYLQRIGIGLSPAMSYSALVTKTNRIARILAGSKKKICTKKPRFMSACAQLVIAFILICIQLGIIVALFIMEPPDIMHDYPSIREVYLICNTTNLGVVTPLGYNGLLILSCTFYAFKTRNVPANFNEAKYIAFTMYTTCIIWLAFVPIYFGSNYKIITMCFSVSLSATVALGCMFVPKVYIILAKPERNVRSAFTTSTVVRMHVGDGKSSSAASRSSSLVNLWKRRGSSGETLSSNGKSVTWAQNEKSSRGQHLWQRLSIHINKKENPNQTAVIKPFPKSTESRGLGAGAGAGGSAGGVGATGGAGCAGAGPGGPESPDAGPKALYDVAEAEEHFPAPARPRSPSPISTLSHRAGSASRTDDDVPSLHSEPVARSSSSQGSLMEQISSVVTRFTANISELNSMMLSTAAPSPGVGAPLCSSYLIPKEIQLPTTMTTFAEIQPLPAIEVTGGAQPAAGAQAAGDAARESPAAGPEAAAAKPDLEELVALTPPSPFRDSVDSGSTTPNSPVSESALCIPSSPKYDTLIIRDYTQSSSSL

In the case of `Cc1nc(C#Cc2cccc(Cl)c2)cn1-c1cccc(N2CCSCC2)n1` [Example 39, 4-{6-[4-(3-Chloro-phenylethynyl)-2-methyl-imidazol-1-yl]-pyridin-2-yl}-thiomorpholine], the Ki is 9 nM.

Turning to `Cc1nc(C#Cc2cccc(Cl)c2)cn1-c1cccc(N2CCS(=O)(=O)CC2)n1` [Example 40, 4-{6-[4-(3-Chloro-phenylethynyl)-2-methyl-imidazol-1-yl]-pyridin-2-yl}-thiomorpholine-1,1-dioxide], the Ki was determined as 68 nM.

Consider `Cc1nc(C#Cc2cccc(Cl)c2)cn1-c1ccc(N(C)C)nn1` [Example 27, {6-[4-(3-Chloro-phenylethynyl)-2-methyl-imidazol-1-yl]-pyridazin-3-yl}-dimethyl-amine], for which the Ki turned out to be 130 nM.

For the compound `Cc1nc(C#Cc2cccc(C#N)c2)cn1-c1cnccn1` [Example 22, 3-(2-Methyl-1-pyrazin-2-yl-1H-imidazol-4-ylethynyl)-benzonitrile], the Ki stood at 60 nM.

On to `Cc1nc(C#Cc2cccc(Cl)c2)cn1-c1ccoc1` [Example 9, 4-(3-Chloro-phenylethynyl)-1-furan-3-yl-2-methyl-1H-imidazole], for which the Ki worked out at 11 nM.

Take `COc1ccnc(-n2cc(C#Cc3cccc(C#N)c3)nc2C)n1` [Example 20, 3-[1-(4-Methoxy-pyrimidin-2-yl)-2-methyl-1H-imidazol-4-ylethynyl]-benzonitrile]: the Ki amounted to 11 nM.

As to `COc1ccc(-n2cc(C#Cc3cccc(Cl)c3)nc2C)nn1` [Example 26, 3-[4-(3-Chloro-phenylethynyl)-2-methyl-imidazol-1-yl]-6-methoxy-pyridazine], the Ki came to 94 nM.

Regarding `Cc1nc(C#Cc2cccc(Cl)c2)cn1-c1ncccn1` [Example 1, 2-[4-(3-Chloro-phenylethynyl)-2-methyl-imidazol-1-yl]-pyrimidine], the Ki was found to be 63 nM.

`Cc1cccc(-n2cc(C#Cc3cccc(C#N)c3)nc2C)n1` [Example 3, 3-[2-Methyl-1-(6-methyl-pyridin-2-yl)-1H-imidazol-4-ylethynyl]-benzonitrile]: the Ki came out at 31 nM.

`Cc1nc(C#Cc2cccc(Cl)c2)cn1-c1ccc(Cl)nn1` [Example 25, 3-Chloro-6-[4-(3-chloro-phenylethynyl)-2-methyl-imidazol-1-yl]-pyridazine]: the Ki worked out at 32 nM.

Take `Cc1nc(C#Cc2cccc(Cl)c2)cn1-c1nccc(C(F)(F)F)n1` [Example 2, 2-[4-(3-Chloro-phenylethynyl)-2-methyl-imidazol-1-yl]-4-trifluoromethyl-pyrimidine]: the Ki was found to be 28 nM.

Turning to `Cc1cc(-n2cc(C#Cc3cccc(Cl)c3)nc2C)cnn1` [Example 8, 5-[4-(3-Chloro-phenylethynyl)-2-methyl-imidazol-1-yl]-3-methyl-pyridazine], the Ki stood at 157 nM.

As for `Cc1ccc(-n2cc(C#Cc3cccc(C(F)(F)F)c3)nc2C)nc1` [Example 31, 5-Methyl-2-[2-methyl-4-(3-trifluoromethyl-phenylethynyl)-imidazol-1-yl]-pyridine], the Ki worked out at 88 nM.

In the case of `Cc1nc(C#Cc2cccc(C#N)c2)cn1-c1cncc(F)c1` [Example 35, 3-[1-(5-Fluoro-pyridin-3-yl)-2-methyl-1H-imidazol-4-ylethynyl]-benzonitrile], the Ki came out at 39 nM.

`Cc1nc(C#Cc2cccc(C(F)(F)F)c2)cn1-c1ccc(Cl)nc1` [Example 33, 2-Chloro-5-[2-methyl-4-(3-trifluoromethyl-phenylethynyl)-imidazol-1-yl]-pyridine]: the Ki worked out at 66 nM.

For `Cc1nc(C#Cc2cccc(C#N)c2)cn1-c1cncc(N(C)C)c1` [Example 38, 3-[1-(5-Dimethylamino-pyridin-3-yl)-2-methyl-1H-imidazol-4-ylethynyl]-benzonitrile], the Ki was 99 nM.

In general, Ki refers to the dissociation constant of the complex between target and ligand, obtained from inhibition or displacement.
